We go through 2 compounds from PMC8116058, “De novo macrocyclic peptides dissect energy coupling of a heterodimeric ABC transporter by multimode allosteric inhibition” (eLife, 2021).

This series concerns TmrAB. As for the experimental part:
In order to analyze the binding affinity and specificity of CPs to TmrAB, we established a fluorescence polarization assay. Fluorescein-labeled CP^Fs were incubated with increasing concentrations of TmrAB reconstituted in liposomes at a protein-to-lipid ratio of 1:20 (w/w). […] To address whether the CPs recognize a linear or non-linear epitope, we examined the binding of CP^Fs after disrupting the quaternary and tertiary structure of TmrAB complexes by adding anionic detergent SDS.
Figure 2. […] (A, B) Equilibrium binding analysis. Fluorescence anisotropy of CP^Fs (50 nM) was determined at λex/em = 485/520 nm with increasing concentrations of TmrAB which was reconstituted in liposomes. TmrAB concentrations were calculated based on the random (50/50%) orientation in proteoliposomes ([Stefan et al., 2020]). […] The difference in fluorescence polarization was normalized to free (0%) and 100% bound CP^F. Mean values ± SD (n = 3) are shown, and data were analyzed by a one-site binding model. […] Amounts of TmrA in input (I), flow-through (FT), wash fraction (W), and eluate (E) were analyzed by SDS-PAGE and immunoblotting (α-His). […] Bound TmrAB was eluted in SDS loading buffer and analyzed by SDS-PAGE (silver stain). […] TmrAB in input (I), flow-through (FT), washing fraction (W), and eluate (E) was analyzed by SDS-PAGE and immunoblotting (α-His). […] CP^F-TmrAB complexes were analyzed by gel filtration. […]

Positions of bridges follow the written chain, without caps; N, C: chain ends. Non-standard residues stand in square brackets, D forms with d. Residues, ends and D or L forms follow the SMILES beside them. *: point of attachment. 5FAM = O=C1OC2(c3ccc(O)cc3Oc3cc(O)ccc32)c2ccc(C(=O)*)cc21; βAla = NCCC(=O)O

In the case of `CC[C@H](C)[C@@H]1NC(=O)[C@H](Cc2c[nH]c3ccccc23)NC(=O)[C@H](CC(N)=O)NC(=O)[C@H](C)NC(=O)[C@H](CO)NC(=O)[C@@H]2CCCN2C(=O)[C@H](CC(=O)O)NC(=O)[C@@H](Cc2ccc(O)cc2)NC(=O)CSC[C@@H](C(=O)NCC(=O)N[C@@H](CO)C(=O)NCCC(=O)NCCC(=O)N[C@@H](CCCNC(=N)N)C(=O)N[C@@H](CCCCNC(=O)c2ccc3c(c2)C(=O)OC32c3ccc(O)cc3Oc3cc(O)ccc32)C(N)=O)NC(=O)[C@H]([C@@H](C)O)NC(=O)[C@H](CC(C)C)NC(=O)[C@H](CC(C)C)NC(=O)[C@H](C(C)C)NC(=O)[C@H](CC(C)C)NC1=O` [CP13] ({CH2CO}-[dY]DPSANWILVLLTCGS[βAla][βAla]RK(5FAM)-NH2; thioether N-14; C-terminus assumed), the “Isolation of TmrAB from solubilized E. coli membranes” value is “isolate intact TmrAB complexes”. Then `CC(C)[C@@H]1NC(=O)[C@H](Cc2ccccc2)NC(=O)[C@@H]2CCCN2C(=O)[C@H](CC(N)=O)NC(=O)[C@H](Cc2c[nH]c3ccccc23)NC(=O)[C@H](C(C)C)NC(=O)[C@H](Cc2ccc(O)cc2)NC(=O)[C@H](Cc2ccccc2)NC(=O)[C@@H](Cc2ccc(O)cc2)NC(=O)CSC[C@@H](C(=O)NCC(=O)N[C@@H](CO)C(=O)NCCC(=O)NCCC(=O)N[C@@H](CCCNC(=N)N)C(=O)N[C@@H](CCCCNC(=O)c2ccc3c(c2)C(=O)OC32c3ccc(O)cc3Oc3cc(O)ccc32)C(N)=O)NC(=O)[C@H](CCCCN)NC(=O)[C@H](Cc2ccccc2)NC1=O` [CP14] ({CH2CO}-[dY]FYVWNPFVFKCGS[βAla][βAla]RK(5FAM)-NH2; thioether N-12; C-terminus assumed), with “isolate intact TmrAB complexes”.
